In patent US5134235A, “Process for separating folinic acid” (Eprova A.G., priority 1987, dated 1992):
Like-named read-outs stand apart in the source and are kept apart here.

Key:
[1] = Solubility in water; type: physicochemical; conditions: for solubility: water; for solubility in water (in words): qualitative
[2] = Stability of folinic acid at higher pH during recrystallization; type: physicochemical; conditions: pH above the 8.5 to 12 range of the first recrystallization
[3] = cited: J. A. Straw et al, Cancer Research 44, 3114 (1984); cited from earlier work
[4] = cited: J. A. Straw et al, Cancer Research 44, 3114 (1984); cited from earlier work; remark: listed apart in the source

With `Nc1nc(=O)c2c([nH]1)NC[C@H](CNc1ccc(C(=O)N[C@@H](CCC(=O)O)C(=O)O)cc1)N2C=O` [magnesium-(6S)-folinate, Magnesium-(6S)-folinate] the Solubility in water ([1]; at 20° C.) was 2.4 g/100 ml and the solubility ([1]; general statement in description, temperature not given, read-out: water solubility) was over 20 mg/mL.
With `Nc1nc2c(c(=O)[nH]1)N(C=O)C(CNc1ccc(C(=O)N[C@@H](CCC(=O)O)C(=O)O)cc1)CN2` (stereo partly drawn) [folinic acid, N-(5-formyl-(6R,S)-5,6,7,8-tetrahydro-pteroyl)-L-glutamic acid] the “stability at higher pH” value [2] was “appreciably lower”.
In the case of `Nc1nc(=O)c2c([nH]1)NC[C@H](CNc1ccc(C(=O)N[C@@H](CCC(=O)O)C(=O)O)cc1)N2C=O` [calcium-(6S)-folinate, Calcium-(6S)-folinate], the “strength of aqueous solution that can be formed” value ([1]; at 20° C., aqueous solution) was 0.95% and the solubility ([1]; at 40° C., read-out: Solubility in water) was 15 mg/mL.
In the case of `Nc1nc(=O)c2c([nH]1)NC[C@H](CNc1ccc(C(=O)N[C@@H](CCC(=O)O)C(=O)O)cc1)N2C=O` [Potassium-(6S)-folinate], the “solubility in water (in words)” value [1] was “readily soluble”.
For `Nc1nc2c(c(=O)[nH]1)N(C=O)[C@H](CNc1ccc(C(=O)N[C@@H](CCC(=O)O)C(=O)O)cc1)CN2` [5-CHO-(6R)-H4 PteGlu], the “elimination through the urine” value [3] is listed as “slowly eliminated through the urine”, the metabolism [3] is listed as “barely metabolized” and the biochemical activity [4] is listed as “biochemically inactive”.
In the case of `Nc1nc(=O)c2c([nH]1)NC[C@H](CNc1ccc(C(=O)N[C@@H](CCC(=O)O)C(=O)O)cc1)N2C=O` [(6S)-folinic acid, N-(5-formyl-(6S)-5,6,7,8-tetrahydro-pteroyl)-L-glutamic acid], the “solubility in water (in words)” value [1] was “barely soluble”.
In the case of `Nc1nc(=O)c2c([nH]1)NC[C@H](CNc1ccc(C(=O)N[C@@H](CCC(=O)O)C(=O)O)cc1)N2C=O` [Sodium-(6S)-folinate], the “solubility in water (in words)” value [1] was “readily soluble”.
